Source: patent publication US5624948A, “1-(2-benzimidazolyl)-1,5-diazacyclooctane compounds” (Kissei Pharmaceutical Co., Ltd., priority 1993, dated 1997)

Experiments:
histamine H1-receptor = biological target: T1, histamine H1-receptor (Cavia porcellus, UniProt P31389); assay: receptor binding assay in blocking 3H-pyrilamine binding to histamine H1-receptor site in guinea pig cerebellum; settings: read-out: 50% inhibitory activity (concentration producing 50% reduction of the binding of the labeled ligand)
T1 construct: histamine H1 -receptor site in guinea pig cerebellum; from tissue; host or cells: guinea pig cerebellum
Description: The pharmacological activity of the 1-(2-benzimidazolyl)-1,5-diazacyclooctane compounds of the present invention can be confirmed by receptor binding assay in blocking 3H-pyrilamine binding to histamine H1 -receptor site in guinea pig cerebellum. The 1-(2-benzimidazolyl)-1,5-diazacyclooctane compounds of the present invention show a potent histamine H1 -receptor antagonistic activity, and produce a 50% inhibitory activity in a range of about 10^-10 to 10^-8 M (concentration producing 50% reduction of the binding of the labeled ligand).

[1] = test system: DNP-As-induced bronchoconstriction; assay: guinea pig antigen-induced bronchoconstriction model (DNP-As-induced, inhalation of compound); type: in vivo; settings: 0.01 mg/ml solution, inhalation for 1 minute with ultrasonic nebulizer, DNP-As 100 μg protein/ml, 1 ml/kg, i.v.
Description: In the guinea pig antigen-induced bronchoconstriction model, the 1-(2-benzimidazolyl)-1,5-diazacyclooctane compounds of the present invention also show a potent antiallergic activity and a long-lasting efficacy.

in vitro = type: cell-based; settings: human, nhek keratinocytes
Protocol: The 1-(2-benzimidazolyl)-1,5-diazacyclooctane compounds of the present invention show a weak cytotoxicity toward normal human epidermal keratinocytes (NHEK) growth. […] In comparison, the NR50 value of Astemizole is about 4.42 μM.

bronchial tissues = settings: topical formulation applied to the bronchia; cited from earlier work

T1 sequence (P31389 whole entry): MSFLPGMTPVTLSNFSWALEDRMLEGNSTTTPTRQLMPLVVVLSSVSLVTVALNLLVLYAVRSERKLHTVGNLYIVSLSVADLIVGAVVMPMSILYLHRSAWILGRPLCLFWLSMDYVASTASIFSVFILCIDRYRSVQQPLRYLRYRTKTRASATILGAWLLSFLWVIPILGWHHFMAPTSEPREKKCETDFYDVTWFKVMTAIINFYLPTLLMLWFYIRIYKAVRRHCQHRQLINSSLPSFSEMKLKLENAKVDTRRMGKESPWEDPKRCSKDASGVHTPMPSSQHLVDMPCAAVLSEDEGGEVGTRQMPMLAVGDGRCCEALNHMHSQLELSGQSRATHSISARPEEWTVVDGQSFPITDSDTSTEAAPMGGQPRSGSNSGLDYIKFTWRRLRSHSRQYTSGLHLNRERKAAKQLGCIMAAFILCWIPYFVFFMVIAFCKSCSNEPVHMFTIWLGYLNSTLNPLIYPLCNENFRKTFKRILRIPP

Row | Structure (SMILES) | IC50 (histamine H1-receptor) [µM] | inhibition of DNP-As-induced bronchoconstriction at 4 hours after inhalation [1] | inhibition of DNP-As-induced bronchoconstriction at 8 hours after inhalation [1] | CC50 (in vitro) [µM] | irritation to bronchial tissues (in words) (bronchial tissues)
1 | O=C(O)CCc1ccc(CCN2CCCN(c3nc4ccccc4n3Cc3ccc(F)cc3)CCC2)cc1 [Compound 16, 5-[2-[4-(2-Carboxyethyl)phenyl]ethyl]-1-[1-(4-fluorophenylmethyl)-1H-benzimidazol-2-yl]-1,5-diazacyclooctane] | ~0.000575 | about 54.6% | about 44.7% | ~789 | 
2 | COc1ccc(CCN2CCC(Nc3nc4ccccc4n3Cc3ccc(F)cc3)CC2)cc1 [Astemizole] |  | about 37.5% | about 29.3% | ~4.42 | strong irritation to bronchial tissues
